Holding throughout (test): kinase panel
Assay type in all cases: biochemical

The target of experiment [1] is T1, ARK5(h) (Homo sapiens, UniProt O60285).
T1 sequence (O60285 1-661): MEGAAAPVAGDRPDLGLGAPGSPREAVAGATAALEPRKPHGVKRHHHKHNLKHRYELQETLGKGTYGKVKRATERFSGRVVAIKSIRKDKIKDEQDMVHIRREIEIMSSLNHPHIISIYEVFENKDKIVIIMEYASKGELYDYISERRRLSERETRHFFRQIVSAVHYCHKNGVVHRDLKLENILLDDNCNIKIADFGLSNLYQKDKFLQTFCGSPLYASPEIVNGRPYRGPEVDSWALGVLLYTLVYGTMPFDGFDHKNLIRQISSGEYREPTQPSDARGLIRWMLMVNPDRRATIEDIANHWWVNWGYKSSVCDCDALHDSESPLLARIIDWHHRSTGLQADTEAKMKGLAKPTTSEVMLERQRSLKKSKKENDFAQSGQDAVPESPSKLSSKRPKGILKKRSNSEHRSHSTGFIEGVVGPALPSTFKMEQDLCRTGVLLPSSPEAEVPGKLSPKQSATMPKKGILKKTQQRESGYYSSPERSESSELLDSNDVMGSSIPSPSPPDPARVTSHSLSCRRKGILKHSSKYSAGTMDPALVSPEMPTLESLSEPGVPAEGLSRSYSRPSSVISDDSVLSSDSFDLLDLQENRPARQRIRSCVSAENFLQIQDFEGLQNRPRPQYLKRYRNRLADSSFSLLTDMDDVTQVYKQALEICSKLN
A digest of the protocol:
(§1)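 Values are percent inhibition from kinome-wide profiling of three series compounds across 231 kinases, with a structurally similar analogue tested on only 98 selected kinases.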

Experiment [2] addresses T2, CaMKIV(h) (Homo sapiens, UniProt Q16566).
T2 sequence (Q16566 1-473): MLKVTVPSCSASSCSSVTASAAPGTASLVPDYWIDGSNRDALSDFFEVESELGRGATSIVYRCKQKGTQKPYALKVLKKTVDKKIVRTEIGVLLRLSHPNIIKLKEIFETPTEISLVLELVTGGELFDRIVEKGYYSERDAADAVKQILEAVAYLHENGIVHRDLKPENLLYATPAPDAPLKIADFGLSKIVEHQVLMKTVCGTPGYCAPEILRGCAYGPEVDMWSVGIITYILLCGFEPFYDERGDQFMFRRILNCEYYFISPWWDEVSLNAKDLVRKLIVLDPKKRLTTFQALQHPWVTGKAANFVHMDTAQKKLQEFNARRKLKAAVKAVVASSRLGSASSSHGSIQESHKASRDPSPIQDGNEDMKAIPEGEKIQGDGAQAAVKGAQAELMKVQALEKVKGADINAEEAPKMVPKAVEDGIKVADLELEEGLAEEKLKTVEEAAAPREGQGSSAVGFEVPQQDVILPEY
A digest of the protocol:
as §1

Experiment [3] has as its target T3, CHK1(h) (Homo sapiens, UniProt O14757).
T3 sequence (O14757 1-476): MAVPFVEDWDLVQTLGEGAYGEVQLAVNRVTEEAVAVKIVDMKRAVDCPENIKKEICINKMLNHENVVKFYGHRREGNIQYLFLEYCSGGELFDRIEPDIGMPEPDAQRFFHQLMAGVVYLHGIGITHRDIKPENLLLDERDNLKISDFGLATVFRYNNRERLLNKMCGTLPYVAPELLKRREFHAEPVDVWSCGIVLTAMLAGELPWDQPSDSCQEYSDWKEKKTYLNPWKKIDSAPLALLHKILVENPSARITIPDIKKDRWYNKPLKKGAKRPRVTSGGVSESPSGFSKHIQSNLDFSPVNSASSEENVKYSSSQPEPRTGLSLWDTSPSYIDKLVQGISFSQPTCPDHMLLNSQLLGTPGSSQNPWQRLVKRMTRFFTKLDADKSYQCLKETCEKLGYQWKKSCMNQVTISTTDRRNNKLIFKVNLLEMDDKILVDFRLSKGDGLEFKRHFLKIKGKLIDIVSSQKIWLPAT
A digest of the protocol: as §1

In experiment [4] the target is Lck(h) (Homo sapiens, UniProt P06239). Put shortly: as §1
For experiment [5], the target named is Flt4(h) (Homo sapiens, UniProt P35916). A digest of the protocol:
as §1

Experiment [6] addresses Met(h) (Homo sapiens, UniProt P08581). A digest of the protocol: as §1
The target in experiment [7] is ACK1(h) (Homo sapiens, UniProt Q07912). A digest of the protocol:
as §1

The target in experiment [8] is CDK5/p35(h) (Homo sapiens, UniProt Q00535). A digest of the protocol:
as §1

Experiment [9] has as its target IRAK1(h) (Homo sapiens, UniProt P51617). A digest of the protocol:
as §1

Experiment [10] addresses T4, ZAP-70(h) (Homo sapiens, UniProt P43403).
T4 sequence (P43403 1-619): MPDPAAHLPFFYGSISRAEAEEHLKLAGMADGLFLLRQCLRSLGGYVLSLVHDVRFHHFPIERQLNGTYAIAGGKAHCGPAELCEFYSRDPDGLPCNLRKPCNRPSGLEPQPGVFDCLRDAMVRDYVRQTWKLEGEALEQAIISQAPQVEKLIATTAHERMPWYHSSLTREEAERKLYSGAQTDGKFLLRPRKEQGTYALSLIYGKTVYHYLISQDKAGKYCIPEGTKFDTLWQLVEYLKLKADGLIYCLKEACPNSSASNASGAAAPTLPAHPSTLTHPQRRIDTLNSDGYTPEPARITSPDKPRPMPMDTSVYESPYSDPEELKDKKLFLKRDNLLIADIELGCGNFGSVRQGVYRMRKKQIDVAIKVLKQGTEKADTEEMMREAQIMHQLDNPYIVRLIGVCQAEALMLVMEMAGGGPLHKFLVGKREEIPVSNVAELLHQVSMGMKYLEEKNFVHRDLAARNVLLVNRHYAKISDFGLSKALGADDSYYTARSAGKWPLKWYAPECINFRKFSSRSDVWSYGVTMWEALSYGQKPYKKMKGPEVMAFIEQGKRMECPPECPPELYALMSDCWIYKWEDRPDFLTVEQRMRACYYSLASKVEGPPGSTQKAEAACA
A digest of the protocol:
as §1

In experiment [11] the target is Syk(h) (Homo sapiens, UniProt P43405). Put shortly:
as §1

Experiment [12] has as its target MAPK1(h) (Homo sapiens, UniProt P27361). Put shortly:
as §1

Chain of ACK1(h) (Q07912 whole entry): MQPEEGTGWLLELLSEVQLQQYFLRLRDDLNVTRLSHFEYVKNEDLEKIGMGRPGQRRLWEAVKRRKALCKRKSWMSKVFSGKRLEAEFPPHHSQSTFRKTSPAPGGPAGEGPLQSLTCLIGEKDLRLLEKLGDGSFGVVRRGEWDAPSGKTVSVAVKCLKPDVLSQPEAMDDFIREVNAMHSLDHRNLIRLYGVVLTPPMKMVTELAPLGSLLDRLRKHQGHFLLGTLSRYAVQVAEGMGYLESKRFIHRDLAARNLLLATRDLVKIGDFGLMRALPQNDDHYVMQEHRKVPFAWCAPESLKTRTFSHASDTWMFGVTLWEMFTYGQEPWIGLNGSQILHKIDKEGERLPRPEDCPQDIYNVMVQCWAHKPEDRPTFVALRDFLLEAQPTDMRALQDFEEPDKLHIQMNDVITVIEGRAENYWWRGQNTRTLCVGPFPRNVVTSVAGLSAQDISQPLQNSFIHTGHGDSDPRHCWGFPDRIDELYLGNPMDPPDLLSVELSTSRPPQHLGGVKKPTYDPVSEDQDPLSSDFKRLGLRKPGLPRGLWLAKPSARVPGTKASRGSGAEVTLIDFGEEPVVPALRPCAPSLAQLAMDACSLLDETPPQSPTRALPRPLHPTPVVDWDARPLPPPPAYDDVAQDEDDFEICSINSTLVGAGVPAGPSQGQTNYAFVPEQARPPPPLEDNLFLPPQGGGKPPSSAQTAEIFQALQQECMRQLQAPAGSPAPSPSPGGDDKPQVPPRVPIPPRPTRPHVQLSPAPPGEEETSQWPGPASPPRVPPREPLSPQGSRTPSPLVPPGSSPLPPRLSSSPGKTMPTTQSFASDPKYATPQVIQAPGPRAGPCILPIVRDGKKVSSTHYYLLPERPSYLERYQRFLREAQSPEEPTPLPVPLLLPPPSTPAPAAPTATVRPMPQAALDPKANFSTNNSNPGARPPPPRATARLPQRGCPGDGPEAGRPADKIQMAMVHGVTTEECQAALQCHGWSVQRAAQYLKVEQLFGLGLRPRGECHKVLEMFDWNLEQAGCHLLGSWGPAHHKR
Chain of Lck(h) (P06239 whole entry): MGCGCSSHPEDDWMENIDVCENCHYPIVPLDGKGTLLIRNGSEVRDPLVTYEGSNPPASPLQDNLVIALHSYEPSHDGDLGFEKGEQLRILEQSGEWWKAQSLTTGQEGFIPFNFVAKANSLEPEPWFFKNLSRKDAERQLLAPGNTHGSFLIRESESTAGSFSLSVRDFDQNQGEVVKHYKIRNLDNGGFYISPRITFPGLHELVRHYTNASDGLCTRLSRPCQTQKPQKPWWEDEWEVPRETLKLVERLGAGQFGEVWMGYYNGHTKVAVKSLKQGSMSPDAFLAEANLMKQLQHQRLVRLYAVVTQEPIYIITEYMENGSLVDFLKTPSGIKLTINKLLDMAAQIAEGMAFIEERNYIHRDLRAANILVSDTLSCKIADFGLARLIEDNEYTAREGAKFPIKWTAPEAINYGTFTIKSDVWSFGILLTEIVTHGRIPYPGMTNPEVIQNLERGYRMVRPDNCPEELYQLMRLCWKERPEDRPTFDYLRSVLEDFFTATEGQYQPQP
Chain of IRAK1(h) (P51617 whole entry): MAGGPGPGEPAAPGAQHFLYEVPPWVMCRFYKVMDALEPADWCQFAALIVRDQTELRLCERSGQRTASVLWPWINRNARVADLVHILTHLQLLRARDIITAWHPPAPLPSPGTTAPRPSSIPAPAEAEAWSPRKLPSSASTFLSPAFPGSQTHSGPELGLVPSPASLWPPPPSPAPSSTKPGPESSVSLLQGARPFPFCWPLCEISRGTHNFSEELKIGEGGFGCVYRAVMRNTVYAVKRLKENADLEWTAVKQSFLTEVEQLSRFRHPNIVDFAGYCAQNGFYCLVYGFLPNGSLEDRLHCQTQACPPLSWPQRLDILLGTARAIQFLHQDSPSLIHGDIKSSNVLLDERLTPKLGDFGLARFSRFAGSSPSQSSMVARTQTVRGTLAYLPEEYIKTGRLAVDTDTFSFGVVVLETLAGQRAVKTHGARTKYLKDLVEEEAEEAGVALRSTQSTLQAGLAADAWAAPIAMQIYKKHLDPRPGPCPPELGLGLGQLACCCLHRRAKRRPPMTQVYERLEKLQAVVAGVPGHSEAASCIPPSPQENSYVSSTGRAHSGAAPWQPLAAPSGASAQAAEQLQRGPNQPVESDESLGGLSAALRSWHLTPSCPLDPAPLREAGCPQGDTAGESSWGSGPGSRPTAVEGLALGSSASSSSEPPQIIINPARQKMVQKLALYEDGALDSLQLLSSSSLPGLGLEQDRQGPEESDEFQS
Chain of MAPK1(h) (P27361 whole entry): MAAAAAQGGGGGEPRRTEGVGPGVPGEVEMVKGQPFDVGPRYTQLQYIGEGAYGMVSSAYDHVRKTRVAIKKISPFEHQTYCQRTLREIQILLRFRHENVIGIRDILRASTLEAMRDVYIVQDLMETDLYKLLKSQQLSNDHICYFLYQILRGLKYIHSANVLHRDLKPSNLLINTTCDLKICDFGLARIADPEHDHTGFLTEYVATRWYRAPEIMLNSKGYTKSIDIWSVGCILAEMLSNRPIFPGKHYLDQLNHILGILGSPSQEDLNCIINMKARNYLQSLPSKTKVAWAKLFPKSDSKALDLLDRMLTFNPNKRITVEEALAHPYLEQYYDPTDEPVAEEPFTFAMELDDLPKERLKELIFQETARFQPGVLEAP
Chain of Met(h) (P08581 25-1390): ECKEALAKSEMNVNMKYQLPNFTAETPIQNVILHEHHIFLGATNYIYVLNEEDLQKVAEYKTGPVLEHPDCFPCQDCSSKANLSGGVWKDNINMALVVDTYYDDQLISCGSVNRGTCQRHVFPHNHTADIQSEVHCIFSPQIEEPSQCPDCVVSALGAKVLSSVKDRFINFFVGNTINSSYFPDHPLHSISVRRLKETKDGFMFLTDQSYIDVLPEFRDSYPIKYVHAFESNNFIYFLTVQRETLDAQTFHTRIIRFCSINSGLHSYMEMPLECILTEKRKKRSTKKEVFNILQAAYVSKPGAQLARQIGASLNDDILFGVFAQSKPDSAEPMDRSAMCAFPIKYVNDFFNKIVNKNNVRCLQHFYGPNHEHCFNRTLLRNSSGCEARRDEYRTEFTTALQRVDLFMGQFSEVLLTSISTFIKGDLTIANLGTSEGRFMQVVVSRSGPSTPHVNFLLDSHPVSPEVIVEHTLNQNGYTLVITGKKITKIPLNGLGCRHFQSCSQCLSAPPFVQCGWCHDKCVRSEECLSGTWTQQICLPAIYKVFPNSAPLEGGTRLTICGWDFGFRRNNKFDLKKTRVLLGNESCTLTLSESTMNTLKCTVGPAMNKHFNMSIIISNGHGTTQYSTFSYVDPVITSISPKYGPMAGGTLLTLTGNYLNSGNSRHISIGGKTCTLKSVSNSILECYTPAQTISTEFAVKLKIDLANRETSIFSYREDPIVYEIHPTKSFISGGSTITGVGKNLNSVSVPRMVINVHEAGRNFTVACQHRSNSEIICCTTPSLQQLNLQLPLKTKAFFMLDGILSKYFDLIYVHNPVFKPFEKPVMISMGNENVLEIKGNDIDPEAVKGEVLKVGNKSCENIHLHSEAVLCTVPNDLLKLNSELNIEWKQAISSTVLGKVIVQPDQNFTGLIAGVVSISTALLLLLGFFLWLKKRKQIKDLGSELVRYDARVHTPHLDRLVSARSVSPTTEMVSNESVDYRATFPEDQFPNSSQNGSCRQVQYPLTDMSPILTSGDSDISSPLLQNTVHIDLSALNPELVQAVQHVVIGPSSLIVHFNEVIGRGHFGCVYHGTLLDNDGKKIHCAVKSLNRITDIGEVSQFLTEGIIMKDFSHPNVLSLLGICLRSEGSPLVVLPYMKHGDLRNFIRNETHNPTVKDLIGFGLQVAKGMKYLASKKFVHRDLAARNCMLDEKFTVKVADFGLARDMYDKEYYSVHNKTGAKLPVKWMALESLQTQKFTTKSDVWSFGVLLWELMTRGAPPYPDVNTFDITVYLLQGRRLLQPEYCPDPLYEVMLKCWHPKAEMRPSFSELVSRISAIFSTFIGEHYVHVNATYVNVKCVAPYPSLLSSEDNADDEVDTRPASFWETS
Chain of CDK5/p35(h) (Q00535 whole entry): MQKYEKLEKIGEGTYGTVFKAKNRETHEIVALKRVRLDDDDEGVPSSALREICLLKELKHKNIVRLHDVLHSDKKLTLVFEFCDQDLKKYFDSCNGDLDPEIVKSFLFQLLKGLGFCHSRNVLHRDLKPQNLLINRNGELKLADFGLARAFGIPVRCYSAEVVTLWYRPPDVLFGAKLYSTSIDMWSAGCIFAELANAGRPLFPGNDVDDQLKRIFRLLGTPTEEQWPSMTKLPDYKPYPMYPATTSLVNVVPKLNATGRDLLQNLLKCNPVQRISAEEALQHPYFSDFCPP
Chain of CDK5/p35(h) (Q15078 whole entry partner): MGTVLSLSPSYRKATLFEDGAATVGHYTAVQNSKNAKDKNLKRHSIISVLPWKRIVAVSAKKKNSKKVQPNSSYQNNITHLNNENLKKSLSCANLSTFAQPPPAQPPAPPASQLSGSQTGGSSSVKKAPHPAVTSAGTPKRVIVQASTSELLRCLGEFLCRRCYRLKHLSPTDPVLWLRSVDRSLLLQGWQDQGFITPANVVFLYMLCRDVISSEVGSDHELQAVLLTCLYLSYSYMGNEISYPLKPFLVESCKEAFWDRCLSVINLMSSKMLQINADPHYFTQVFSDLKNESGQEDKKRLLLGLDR

For the molecule `Nc1n[nH]c2ccc(-c3ccnc4[nH]c(-c5ccccc5)cc34)cc12` [Compound 4], the inhibition at 1 µM was 87% in experiment [1]; 4% in experiment [2]; -2% in experiment [3]; 48% in experiment [4]; 97% in [5]; 61% in experiment [6]. Besides, the inhibition at 1 µM in [7] is 83%; in experiment [8] it was 101%; in experiment [9] it was 89%; in experiment [10] it was -8%; in experiment [11], 77%; in experiment [12], 46%.

As for `Nc1n[nH]c2ccc(-c3ccnc4[nH]c(-c5cccc(OCc6ccccc6)c5)cc34)cc12` [Compound 5r [SU1261]], the inhibition at 1 µM was 33% in experiment [1]; 6% in [2]; -2% in experiment [3]; 34% in [4]; 63% in experiment [5]; 14% in [6]. The inhibition at 1 µM in experiment [7] is 41%; in experiment [8] it was 96%; in [9], 42%; in experiment [10], -27%; in experiment [11], 32%; in experiment [12], -4%.

On to `Nc1n[nH]c2ccc(-c3ccnc4[nH]c(-c5ccnc(OCc6ccccc6)c5)cc34)cc12` [Compound 6g [SU1349]], for which the inhibition at 1 µM in [1] is 3%; in [2], -9%; in [3], -9%; in [4] it was -19%; in [5], 43%; in [6], -3%. The inhibition at 1 µM in experiment [7] was 17%; in experiment [8], 90%; in experiment [9], 37%; in experiment [10], -22%; in [11], 25%; in experiment [12] it was 18%.

What is called inhibition is the change of the read-out against control, counted positive when it falls.

The values are drawn from article PMC11314561, “Design and Synthesis of Novel Aminoindazole-pyrrolo[2,3-b]pyridine Inhibitors of IKKα That Selectively Perturb Cellular Non-Canonical NF-κB Signalling” (Molecules, 2024).
